US12077503B2, “Substituted cyclic amides and their use as herbicides” (FMC CORPORATION, priority 2015, dated 2024)

How the values were obtained:
Assay type in all cases: in vivo
[1] = system: ragweed (common ragweed, Ambrosia elatior); experiment: Test A preemergence; details: Ambrosia artemisiifolia, pre-emergence, 240 h; for pest or weed control at 500 g/ha: 500 g ai/ha, preemergence; for pest or weed control at 125 g/ha: Preemergence, 125 g ai/ha
Procedure, shortened: (§1)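 Greenhouse, ~10 d after spray; visual injury vs untreated controls, 0 = no effect, 100 = complete control. Preemergence: directed soil spray over planted seeds. Postemergence: plants 2–10 cm, 1–2 leaf stage. Loam/sand blend. Compound in non-phytotoxic solvent with surfactant.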

Kochia (Kochia scoparia) [2] = experiment: Test A preemergence; details: Bassia scoparia, pre-emergence, 240 h; for pest or weed control at 500 g/ha: 500 g ai/ha, preemergence; for pest or weed control at 125 g/ha: Preemergence, 125 g ai/ha
Procedure, shortened: as §1

[3] = system: barnyardgrass (Echinochloa crus-galli); experiment: Test A preemergence; details: Echinochloa crus-galli, pre-emergence, 240 h; for pest or weed control at 500 g/ha: 500 g ai/ha, preemergence; for pest or weed control at 125 g/ha: Preemergence, 125 g ai/ha
Procedure, shortened: as §1

[4] = system: giant foxtail (Setaria faberii); experiment: Test A preemergence; details: Setaria faberi, pre-emergence, 240 h; for pest or weed control at 500 g/ha: 500 g ai/ha, preemergence; for pest or weed control at 125 g/ha: Preemergence, 125 g ai/ha
Procedure, shortened: as §1

[5] = system: ryegrass, Italian (Italian ryegrass, Lolium multiflorum); experiment: Test A preemergence; details: Lolium multiflorum, pre-emergence, 240 h, 0 to 100 scale (0 no effect, 100 complete control), read-out: Plant response rating, Ryegrass, Italian; for pest or weed control at 125 g/ha: Preemergence, 125 g ai/ha; for pest or weed control at 500 g/ha: 500 g ai/ha, preemergence
Procedure, shortened: as §1

[6] = system: wheat (Triticum aestivum); experiment: Test A postemergence; details: Triticum aestivum, post-emergence, 240 h, Postemergence; for plant injury at 125 g/ha: 125 g ai/ha, visual rating about 10 d after treatment, read-out: Wheat plant response rating (0 to 100 scale); for plant injury at 500 g/ha: 500 g ai/ha, visual injury, 0 to 100 scale (0 no effect, 100 complete control), approx. 10 d, read-out: Plant response rating, Wheat
Procedure, shortened: as §1

[7] = system: blackgrass (Alopecurus myosuroides); experiment: Test A postemergence; details: Alopecurus myosuroides, post-emergence, 240 h, Postemergence; for pest or weed control at 125 g/ha: 125 g ai/ha, visual rating about 10 d after treatment, read-out: Blackgrass plant response rating (0 to 100 scale); for pest or weed control at 500 g/ha: 500 g ai/ha, visual injury, 0 to 100 scale (0 no effect, 100 complete control), approx. 10 d, read-out: Plant response rating, Blackgrass
Procedure, shortened: as §1

[8] = system: ragweed (common ragweed, Ambrosia elatior); experiment: Test A postemergence; details: Ambrosia artemisiifolia, post-emergence, 240 h, Postemergence; for pest or weed control at 125 g/ha: 125 g ai/ha, visual rating about 10 d after treatment, read-out: Ragweed plant response rating (0 to 100 scale); for pest or weed control at 500 g/ha: 500 g ai/ha, visual injury, 0 to 100 scale (0 no effect, 100 complete control), approx. 10 d, read-out: Plant response rating, Ragweed
Procedure, shortened: as §1

[9] = system: pigweed (Amaranthus retroflexus); experiment: Test A postemergence; details: Amaranthus retroflexus, post-emergence, 240 h, Postemergence; for pest or weed control at 125 g/ha: 125 g ai/ha, visual rating about 10 d after treatment, read-out: Pigweed plant response rating (0 to 100 scale); for pest or weed control at 500 g/ha: 500 g ai/ha, visual injury, 0 to 100 scale (0 no effect, 100 complete control), approx. 10 d, read-out: Plant response rating, Pigweed
Procedure, shortened: as §1

corn (Zea mays) = experiment: Test A postemergence; details: Zea mays, post-emergence, 240 h, Postemergence; for plant injury at 125 g/ha: 125 g ai/ha, visual rating about 10 d after treatment, read-out: Corn plant response rating (0 to 100 scale); for Corn plant response rating (crop injury, 0 = no effect, 100 = complete kill) at 500 g/ha: 500 g ai/ha, visual injury, 0 to 100 scale (0 no effect, 100 complete control), approx. 10 d
Procedure, shortened: as §1

Kochia (Kochia scoparia) [10] = experiment: Test A postemergence; details: Bassia scoparia, post-emergence, 240 h, Postemergence; for pest or weed control at 125 g/ha: 125 g ai/ha, visual rating about 10 d after treatment, read-out: Kochia plant response rating (0 to 100 scale); for pest or weed control at 500 g/ha: 500 g ai/ha, visual injury, 0 to 100 scale (0 no effect, 100 complete control), approx. 10 d, read-out: Plant response rating, Kochia
Procedure, shortened: as §1

[11] = system: barnyardgrass (Echinochloa crus-galli); experiment: Test A postemergence; details: Echinochloa crus-galli, post-emergence, 240 h, Postemergence; for pest or weed control at 125 g/ha: 125 g ai/ha, visual rating about 10 d after treatment, read-out: Barnyardgrass plant response rating (0 to 100 scale, 0 no effect, 100 complete control); for pest or weed control at 500 g/ha: 500 g ai/ha, visual injury, 0 to 100 scale (0 no effect, 100 complete control), approx. 10 d, read-out: Plant response rating, Barnyardgrass
Procedure, shortened: as §1

[12] = system: giant foxtail (Setaria faberii); experiment: Test A postemergence; details: Setaria faberi, post-emergence, 240 h, Postemergence; for pest or weed control at 125 g/ha: 125 g ai/ha, visual rating about 10 d after treatment, read-out: Foxtail, Giant plant response rating (0 to 100 scale); for pest or weed control at 500 g/ha: 500 g ai/ha, visual injury, 0 to 100 scale (0 no effect, 100 complete control), approx. 10 d, read-out: Plant response rating, Foxtail, Giant
Procedure, shortened: as §1

[13] = system: ryegrass, Italian (Italian ryegrass, Lolium multiflorum); experiment: Test A postemergence; details: Lolium multiflorum, post-emergence, 240 h, Postemergence; for pest or weed control at 125 g/ha: 125 g ai/ha, visual rating about 10 d after treatment, read-out: Ryegrass, Italian plant response rating (0 to 100 scale); for pest or weed control at 500 g/ha: 500 g ai/ha, visual injury, 0 to 100 scale (0 no effect, 100 complete control), approx. 10 d, read-out: Plant response rating, Ryegrass, Italian
Procedure, shortened: as §1

[14] = system: Galium (catchweed bedstraw, Galium aparine); experiment: Test A postemergence; details: Galium, post-emergence, 240 h, Postemergence; for pest or weed control at 125 g/ha: 125 g ai/ha, visual rating about 10 d after treatment, read-out: Galium plant response rating (0 to 100 scale); for pest or weed control at 500 g/ha: 500 g ai/ha, visual injury, 0 to 100 scale (0 no effect, 100 complete control), approx. 10 d, read-out: Plant response rating, Galium
Procedure, shortened: as §1

[15] = 0 to 100 scale (0 no effect, 100 complete control), read-out: Plant response rating, Ragweed
[16] = 0 to 100 scale (0 no effect, 100 complete control), read-out: Plant response rating, Kochia
[17] = 0 to 100 scale (0 no effect, 100 complete control), read-out: Plant response rating, Barnyardgrass
[18] = 0 to 100 scale (0 no effect, 100 complete control), read-out: Plant response rating, Foxtail, Giant

CN1C[C@H](c2ccc3c(c2)CCO3)[C@@H](C(=O)Nc2ccc(F)c(F)c2F)C1=O [Compound 1323]
pest or weed control at 500 g/ha ([1]; 0 to 100 scale where 0 is no effect and 100 is complete control, read-out: Ragweed plant response rating): 70% | pest or weed control at 125 g/ha [1, 15]: 0% | pest or weed control at 500 g/ha (Kochia (Kochia scoparia) [2]; 0 to 100 scale where 0 is no effect and 100 is complete control, read-out: Kochia plant response rating): 90% | pest or weed control at 125 g/ha (Kochia (Kochia scoparia) [2]; [16]): 80% | pest or weed control at 500 g/ha ([3]; 0 to 100 scale where 0 is no effect and 100 is complete control, read-out: Barnyardgrass plant response rating): 90% | pest or weed control at 125 g/ha [3, 17]: 90% | pest or weed control at 500 g/ha ([4]; 0 to 100 scale where 0 is no effect and 100 is complete control, read-out: Foxtail, Giant plant response rating): 90% | pest or weed control at 125 g/ha [4, 18]: 90% | pest or weed control at 125 g/ha [5]: 20% | plant injury at 125 g/ha [6]: 50% | plant injury at 500 g/ha [6]: 70% | pest or weed control at 125 g/ha [7]: 50% | pest or weed control at 500 g/ha [7]: 60% | pest or weed control at 125 g/ha [8]: 0% | pest or weed control at 500 g/ha [8]: 50% | pest or weed control at 125 g/ha [9]: 0% | pest or weed control at 500 g/ha [9]: 0% | plant injury at 125 g/ha (corn (Zea mays)): 50% | Corn plant response rating (crop injury, 0 = no effect, 100 = complete kill) at 500 g/ha (corn (Zea mays)): 70% | pest or weed control at 125 g/ha (Kochia (Kochia scoparia) [10]): 0% | pest or weed control at 500 g/ha (Kochia (Kochia scoparia) [10]): 70% | pest or weed control at 125 g/ha [11]: 90% | pest or weed control at 500 g/ha [11]: 90% | pest or weed control at 125 g/ha [12]: 90% | pest or weed control at 500 g/ha [12]: 90% | pest or weed control at 125 g/ha [13]: 40% | pest or weed control at 500 g/ha [13]: 70% | pest or weed control at 125 g/ha [14]: 50% | pest or weed control at 500 g/ha [14]: 60%

Cc1c(F)ccc([C@H]2CNC(=O)[C@@H]2C(=O)Nc2cccc(F)c2F)c1F [Compound 1327]
pest or weed control at 500 g/ha [1, 15]: 0% | pest or weed control at 125 g/ha [1, 15]: 0% | pest or weed control at 500 g/ha (Kochia (Kochia scoparia) [2]; [16]): 90% | pest or weed control at 125 g/ha (Kochia (Kochia scoparia) [2]; [16]): 100% | pest or weed control at 500 g/ha [3, 17]: 90% | pest or weed control at 125 g/ha [3, 17]: 90% | pest or weed control at 500 g/ha [4, 18]: 90% | pest or weed control at 125 g/ha [4, 18]: 70% | pest or weed control at 500 g/ha [5]: 20% | pest or weed control at 125 g/ha [5]: 20% | plant injury at 125 g/ha [6]: 0% | plant injury at 500 g/ha [6]: 0% | pest or weed control at 125 g/ha [7]: 0% | pest or weed control at 500 g/ha [7]: 20% | pest or weed control at 125 g/ha [8]: 0% | pest or weed control at 500 g/ha [8]: 20% | pest or weed control at 125 g/ha [9]: 0% | pest or weed control at 500 g/ha [9]: 0% | plant injury at 125 g/ha (corn (Zea mays)): 0% | Corn plant response rating (crop injury, 0 = no effect, 100 = complete kill) at 500 g/ha (corn (Zea mays)): 0% | pest or weed control at 125 g/ha (Kochia (Kochia scoparia) [10]): 0% | pest or weed control at 500 g/ha (Kochia (Kochia scoparia) [10]): 30% | pest or weed control at 125 g/ha [11]: 90% | pest or weed control at 500 g/ha [11]: 90% | pest or weed control at 125 g/ha [12]: 20% | pest or weed control at 500 g/ha [12]: 70% | pest or weed control at 125 g/ha [13]: 0% | pest or weed control at 500 g/ha [13]: 40% | pest or weed control at 125 g/ha [14]: 30% | pest or weed control at 500 g/ha [14]: 50%

Cc1c(F)ccc([C@H]2CNC(=O)[C@@H]2C(=O)Nc2ccc(F)cc2F)c1F [Compound 1328]
pest or weed control at 500 g/ha [1, 15]: 0% | pest or weed control at 125 g/ha [1, 15]: 0% | pest or weed control at 500 g/ha (Kochia (Kochia scoparia) [2]; [16]): 50% | pest or weed control at 125 g/ha (Kochia (Kochia scoparia) [2]; [16]): 30% | pest or weed control at 500 g/ha [3, 17]: 90% | pest or weed control at 125 g/ha [3, 17]: 70% | pest or weed control at 500 g/ha [4, 18]: 90% | pest or weed control at 125 g/ha [4, 18]: 50% | pest or weed control at 500 g/ha [5]: 30% | pest or weed control at 125 g/ha [5]: 0% | plant injury at 125 g/ha [6]: 0% | plant injury at 500 g/ha [6]: 0% | pest or weed control at 125 g/ha [7]: 0% | pest or weed control at 500 g/ha [7]: 0% | pest or weed control at 125 g/ha [8]: 0% | pest or weed control at 500 g/ha [8]: 0% | pest or weed control at 125 g/ha [9]: 0% | pest or weed control at 500 g/ha [9]: 0% | plant injury at 125 g/ha (corn (Zea mays)): 0% | Corn plant response rating (crop injury, 0 = no effect, 100 = complete kill) at 500 g/ha (corn (Zea mays)): 0% | pest or weed control at 125 g/ha (Kochia (Kochia scoparia) [10]): 0% | pest or weed control at 500 g/ha (Kochia (Kochia scoparia) [10]): 0% | pest or weed control at 125 g/ha [11]: 60% | pest or weed control at 500 g/ha [11]: 90% | pest or weed control at 125 g/ha [12]: 0% | pest or weed control at 500 g/ha [12]: 40% | pest or weed control at 125 g/ha [13]: 0% | pest or weed control at 500 g/ha [13]: 30% | pest or weed control at 125 g/ha [14]: 0% | pest or weed control at 500 g/ha [14]: 30%
